Measured values reported in US12286452B2, “Amphiphilic aminoglycoside connexin hemichannel inhibitors” (Texas Tech University System, priority 2018, dated 2025).
Where two headings read alike, the source gives them in different places.

Experiments:
[1] = target: T1, human Cx26 HCs (Homo sapiens, UniProt P29033); experiment: Cx26-dependent growth complementation assay in E. coli LB2003; assay type: cell-based
T1 construct: expressed in transfected cells; host or cells: E. coli LB2003 (carrying pREP4), transformed with pQE-Cx26, IPTG-induced
Protocol: These derivatives were prepared by sequential benzylation and methylation followed by reduction of azido groups or hydrogenolysis of the Bn. […] Connexin HC inhibition was conducted using a bacteria-based assay of HC function^39. In this assay, Cx26 HCs are expressed in E. coli LB2003 cells, which lack three major K^+ uptake systems (Kdp, Kup and Trk), and as a result they cannot grow in low-[K^+] media^39-41. However, growth of this E. coli strain in low-[K^+] medium can be rescued by expression of K^+-permeable channels such as connexin HCs^39, 42-43. Under the conditions of the assay (LB2003 cells expressing HCs and grown in low-K^+ medium), inhibition of the HCs reduces or abolishes growth^39, 42-43. This is a simple assay where bacterial growth in multi-well plates can be followed by measuring the absorbance at 600 nm (OD600)^29.
LB2003 cells generously provided by Dr. E. P. Bakker (Osnabruk University, Osnabruk, Germany) were transformed with the plasmid pQE-Cx26 (human Cx26 into pQE60) and pREP4. […] LB2003 cells cannot grow in low-[K^+] media because of insufficient K^+ uptake for growth due to the knockout of three key K^+ transporters (Atrk, Akup, Akdp strain)^2-4. Details and validation of the growth complementation assay have been published recently^2. In brief, competent LB2003 containing the pREP4 plasmid were transformed with pQE-Cx26. These cells were grown overnight in Luria-Bertani medium (BD, Franklin Lakes, NJ, USA) supplemented with 100 mM KCl (to allow growth) and 0.4 mg/mL ampicillin, and then washed four times with NLM (see below), to remove residual K^+ from the Luria-Bertani medium. The washed cells were resuspended in complementation growth medium to an OD600 of 0.2. NLM contained 46 mM Na2HPO4, 23 mM NaH2PO4, 8 mM (NH4)2SO4, 0.4 mM MgSO4, 0.012 mM FeSO4, 1 mM sodium citrate, 44 mM glucose and 0.006 mM thiamine hydrochloride, pH 7.0. KLM had the same composition that NLM except for the equimolar replacement of Na^+ with K^+. For growth complementation we used NLM+4 mM KCl, and Cx26 expression was induced with 0.5 mM IPTG at the time of dilution to OD600=0.2. For the assay, the cells were seeded in 96-well plates and were incubated at 30° C., with shaking at 500 rpm. OD600 was measured after 18-h incubation in a plate reader. The initial OD600=0.2 was subtracted for growth calculations. Data are presented as means±SEM. Statistically significant differences were calculated by the Student t-test for unpaired data. Data were obtained from at least 3 independent experiments, with 3 repeats per experiment.

[2] = target: T2, Cx43 HCs (Homo sapiens, UniProt P17302); experiment: Cx43-dependent growth complementation assay in E. coli LB2003; assay type: cell-based; conditions: for Cx43/Cx26 Selectivity: IC50 Cx26/IC50 Cx43
T2 construct: expressed in transfected cells
T2 sequence (P17302 whole entry): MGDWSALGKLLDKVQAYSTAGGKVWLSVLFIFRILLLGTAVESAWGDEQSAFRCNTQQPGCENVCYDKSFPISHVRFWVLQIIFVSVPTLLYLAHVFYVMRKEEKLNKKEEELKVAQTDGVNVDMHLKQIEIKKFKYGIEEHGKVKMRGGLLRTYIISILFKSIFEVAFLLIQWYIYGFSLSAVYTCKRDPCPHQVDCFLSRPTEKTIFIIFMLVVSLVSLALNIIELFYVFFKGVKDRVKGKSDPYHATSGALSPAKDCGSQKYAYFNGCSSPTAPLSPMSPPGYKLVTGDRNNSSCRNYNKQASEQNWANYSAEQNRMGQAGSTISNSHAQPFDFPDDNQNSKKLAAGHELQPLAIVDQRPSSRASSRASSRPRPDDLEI

[3] = 4″,6″-disubstituted AKs, Table 5, read-out: Cx26 IC50
[4] = K46 members, the 20th table, read-out: IC50 (μM) against Cx26
[5] = read-out: IC50, inhibition of Cx26 by kanamycin A and synthetic AGs, first Table 1
[6] = 4″,6″-disubstituted AKs, Table 5, read-out: Cx43 IC50
[7] = K46 members, the 20th table, read-out: IC50 (μM) against Cx43
[8] = the 13th table, read-out: Cx43 IC50
[9] = first Table 2, read-out: IC50, inhibition of Cx26 by synthetic AGs

Row | Structure (SMILES) | IC50 [1, 3] [µM] | IC50 [1, 4] [µM] | IC50 [1, 5] [µM] | IC50 [2, 6] [µM] | IC50 [2, 7] [µM] | further results
1 | CCCCOCC1OC(OC2C(N)CC(N)C(OC3OC(CN)C(O)C(O)C3O)C2O)C(O)C(N)C1OCCCC (stereo not drawn) [Compound 2] | 19 ± 2 | 19 ± 2.8 | 19 ± 2.8 |  |  | 
2 | CCCCCCOC[C@H]1O[C@H](O[C@@H]2[C@@H](O)[C@H](O[C@H]3O[C@H](CN)[C@@H](O)[C@H](O)[C@H]3O)[C@@H](N)C[C@H]2N)[C@H](O)[C@@H](N)[C@@H]1OCCCCCC [Compound 3] | 6.2 ± 1.4 | 6.2 ± 1.4 | 6.2 ± 1.4 |  |  | 
3 | CCCCCCO[C@H]1[C@H](N)[C@@H](O)[C@@H](O[C@@H]2[C@@H](O)[C@H](O[C@H]3O[C@H](CN)[C@@H](O)[C@H](O)[C@H]3O)[C@@H](N)C[C@H]2N)O[C@@H]1CO [Compound 4] |  |  |  |  |  | IC50 ([1]; first Table 1): 13.5 ± 1.8 µM
4 | CCCCCCCCOC[C@H]1OC(O[C@@H]2C(N)CC(N)C(O[C@H]3OC(CN)[C@@H](O)[C@H](O)C3O)[C@@H]2O)[C@H](O)[C@H](N)C1OCCCCCCCC (stereo partly drawn) [Compound 5] | 13.6 ± 0.5 | 13.6 ± 0.5 | 13.6 ± 0.5 | 11.4 ± 4.3 | 26.6 ± 7.8 | Cx26 Imax ([1]; the 13th table): 94 ± 2%; IC50 ([1]; the 13th table, read-out: Cx26 IC50): 13.5 ± 0.5 µM; Cx43/Cx26 Selectivity ([2]; Table 5): 1.19; Cx43 Imax ([2]; the 13th table): 119 ± 8%; IC50 [2, 8]: 11.4 ± 4.3 µM
5 | CCCCCCCCCOC[C@H]1O[C@H](O[C@H]2[C@H](O)[C@@H](O[C@H]3O[C@H](CN)[C@@H](O)[C@H](O)[C@H]3O)[C@H](N)C[C@@H]2N)[C@H](O)[C@@H](N)[C@@H]1OCCCCCCCCC [Compound 6] | 18.8 ± 1.3 | 18.8 ± 1.3 | 18.8 ± 1.3 |  |  | 
6 | COC1C(OC2C(N)CC(N)C(OC3OC(CN)C(OC)C(OC)C3OC)C2OC)OC(COCc2ccccc2)C(OCc2ccccc2)C1N (stereo not drawn) [Compound 8, 5, 2′, 3′, 4′, 2″-Penta-O-methyl-4″,6″-di-O-benzylkanamycin] |  | 8.4 ± 1.4 | 8.4 ± 1.4 |  |  | 
7 | COC1C(OC2C(N)CC(N)C(OC3OC(CN)C(OC)C(OC)C3OC)C2OC)OC(CO)C(O)C1N (stereo not drawn) [Compound 9, 5, 2′, 3′, 4′, 2″-Penta-O-methyl-kanamycin] |  |  |  |  |  | inhibition of Cx26 HCs (in words) [1]: lack of inhibitory activity; IC50, inhibition of Cx26 by kanamycin A and synthetic AGs ([1]; first Table 1): No inhibition at 100 μM
8 | COc1ccc(COCC2OC(OC3C(N)CC(N)C(OC4OC(CN)C(O)C(O)C4O)C3O)C(O)C(N)C2OCc2ccc(OC)cc2)cc1 (stereo not drawn) [Compound 10, 4″,6″-Di-O-(4-methoxybenzyl) kanamycin] |  |  |  | 4.1 ± 1.5 | 4.1 ± 1.5 | IC50 [1, 9]: 13 ± 0.7 µM; Cx43/Cx26 Selectivity ([2]; Table 5, listed as 2b): 3.17; IC50 ([2]; the 12th table, Hill fit, mean ± SEM, some n = 1, read-out: Cx43 IC50): 4.1 ± 1.5 µM
9 | Cc1ccc(COCC2OC(OC3C(N)CC(N)C(OC4OC(CN)C(O)C(O)C4O)C3O)C(O)C(N)C2OCc2ccc(C)cc2)cc1 (stereo not drawn) [Compound 11, 4″,6″-Di-O-(4-methylbenzyl) kanamycin] |  |  |  | 3.1 ± 0.9 | 3.1 ± 0.9 | IC50 [1, 9]: 4.3 ± 0.4 µM; Cx26 Imax ([1]; the 13th table): 102 ± 3%; Cx43/Cx26 Selectivity ([2]; Table 5): 1.39; Cx43 Imax ([2]; the 13th table): 80.4 ± 6%; IC50 [2, 8]: 3.1 ± 0.9 µM
